Tests used:
Assay type in all cases: in vivo, rat
MCP-1 = experiment: LPS-induced plasma MCP-1 immunoreactivity (post-treatment, ELISA); conditions: LPS 10 mg/kg i.v.; post-treatment 10 min after LPS; up to 5 hours; FIG. 9
Experimental: (§1) The animal experiment is approved by the Animal Care and Use Committee at the Kaohsiung Medical University. The male Wistar rats, weighing 250-350 g, are provided by the National Laboratory Animal Breeding and Research Center (Taipei, Taiwan). The rats are housed under conditions of constant temperature and controlled illumination (light regime of 12 h light and 12 h darkness). The rats are allowed food and water ad libitum. They are anesthetized with an intraperitoneal (i.p.) injection of pentobarbital sodium (50 mg/kg). Following tracheal cannulation, systemic arterial blood pressure and heart rate are recorded from the femoral artery with a pressure transducer (Spectramed, Model P10EZ, USA). Body temperature is maintained at 37° C. by an electric heating pad. A femoral vein is cannulated for the administration of LPS (E. coli serotype 026:B6), HBCM, baicalin, or dexamethasone (DEXA), respectively. The rats are injected intravenously with either saline (0.1 ml/kg) or LPS (10 mg/kg) for control and experimental purposes, respectively. All the animals are assigned to one of the following groups: saline only, LPS/saline, LPS/HBCM (75 mg/kg), LPS/baicalin (1.5 mg/kg), and LPS/DEXA (0.5 mg/kg) groups. LPS is injected at a dose of 10 mg/kg, after 10 min, HBCM, baicalin and DEXA are given, respectively. […]

iNOS = experiment: LPS-induced iNOS in lung tissues (western blot); conditions: 5 h after LPS 10 mg/kg; HBCM 75, baicalin 1.5, DEXA 0.5 mg/kg post-treatment; FIG. 8
Experimental: as §1, with “respectively.” for “respectively. All the animals are assigned to one of the following groups: saline only, LPS/saline, LPS/HBCM (75 mg/kg), LPS/baicalin (1.5 mg/kg), and LPS/DEXA (0.5 mg/kg) groups. LPS is injected at a dose of 10 mg/kg, after 10 min, HBCM, baicalin and DEXA are given, respectively.”
(§2) The HBCM, baicalin and DEXA are post-treated 10 minutes after the administration of LPS. […] The expression of each protein is detected by enhanced chemiluminescence using Hyperfilm and ECL reagent (Amersham, UK).

ICAM-1 = experiment: LPS-induced ICAM-1 in lung tissues (western blot); conditions: 5 h after LPS 10 mg/kg; HBCM 75, baicalin 1.5, DEXA 0.5 mg/kg post-treatment; FIG. 8
Experimental: as §1, with “respectively.” for “respectively. All the animals are assigned to one of the following groups: saline only, LPS/saline, LPS/HBCM (75 mg/kg), LPS/baicalin (1.5 mg/kg), and LPS/DEXA (0.5 mg/kg) groups. LPS is injected at a dose of 10 mg/kg, after 10 min, HBCM, baicalin and DEXA are given, respectively.”
as §2

Wistar rats [1] = experiment: LPS-induced lung edema (wet/dry weight ratio); conditions: 5 hours after LPS; HBCM, baicalin, DEXA given 10 min after LPS; FIG. 7
Experimental: as §1, with “respectively.” for “respectively. The rats are injected intravenously with either saline (0.1 ml/kg) or LPS (10 mg/kg) for control and experimental purposes, respectively. All the animals are assigned to one of the following groups: saline only, LPS/saline, LPS/HBCM (75 mg/kg), LPS/baicalin (1.5 mg/kg), and LPS/DEXA (0.5 mg/kg) groups. LPS is injected at a dose of 10 mg/kg, after 10 min, HBCM, baicalin and DEXA are given, respectively.”
The water content of the lungs is determined by calculating the wet/dry weight ratio of lung tissues at 5 hours after LPS administration. […] The dry weight is determined after the lung is dried at 80° C. for 72 hours, and the edema index (wet/dry weight ratio) is calculated by dividing the wet weight by the dry weight. The edema index indicates the water content of the lung, which is determined by calculating the wet/dry weight ratio of lung tissues at 5 hours after LPS administration.

TGF-β = experiment: LPS-induced TGF-β in lung tissues (western blot); conditions: 5 h after LPS 10 mg/kg; HBCM 75, baicalin 1.5, DEXA 0.5 mg/kg post-treatment; FIG. 8
Experimental: as §1, with “respectively.” for “respectively. All the animals are assigned to one of the following groups: saline only, LPS/saline, LPS/HBCM (75 mg/kg), LPS/baicalin (1.5 mg/kg), and LPS/DEXA (0.5 mg/kg) groups. LPS is injected at a dose of 10 mg/kg, after 10 min, HBCM, baicalin and DEXA are given, respectively.”
as §2

IL-1β = experiment: LPS-induced plasma IL-1β immunoreactivity (post-treatment, ELISA); conditions: LPS 10 mg/kg i.v.; post-treatment 10 min after LPS; up to 5 hours; FIG. 9
Experimental: as §1

TNF-α = experiment: LPS-induced plasma TNF-α immunoreactivity (post-treatment, ELISA); conditions: LPS 10 mg/kg i.v.; HBCM 75, baicalin 1.5, DEXA 0.5 mg/kg 10 min after LPS; FIG. 9
Experimental: as §1

Wistar rats [2] = experiment: Attenuation of LPS-induced arterial hypotension (post-treatment); conditions: HBCM 75 mg/kg, baicalin 1.5 mg/kg, DEXA 0.5 mg/kg i.v. 10 min after LPS 10 mg/kg i.v.; FIG. 3
Experimental: as §1

[3] = tested on: phosphorylated p38 MAP kinase; experiment: LPS-induced phosphorylated p38 MAP kinase in lung tissues (western blot); conditions: 5 h after LPS 10 mg/kg; HBCM 75, baicalin 1.5, DEXA 0.5 mg/kg post-treatment; FIG. 8
Experimental: as §1, with “respectively.” for “respectively. All the animals are assigned to one of the following groups: saline only, LPS/saline, LPS/HBCM (75 mg/kg), LPS/baicalin (1.5 mg/kg), and LPS/DEXA (0.5 mg/kg) groups. LPS is injected at a dose of 10 mg/kg, after 10 min, HBCM, baicalin and DEXA are given, respectively.”
as §2

Wistar rats [4] = experiment: Acute survival study after LPS
Experimental: The animal experiment is approved by the Animal Care and Use Committee at the Kaohsiung Medical University. The male Wistar rats, weighing 250-350 g, are provided by the National Laboratory Animal Breeding and Research Center (Taipei, Taiwan). The rats are housed under conditions of constant temperature and controlled illumination (light regime of 12 h light and 12 h darkness). The rats are allowed food and water ad libitum. They are anesthetized with an intraperitoneal (i.p.) injection of pentobarbital sodium (50 mg/kg). Following tracheal cannulation, systemic arterial blood pressure and heart rate are recorded from the femoral artery with a pressure transducer (Spectramed, Model P10EZ, USA). Body temperature is maintained at 37° C. by an electric heating pad. A femoral vein is cannulated for the administration of LPS (E. coli serotype 026:B6), HBCM, baicalin, or dexamethasone (DEXA), respectively. The rats are injected intravenously with either saline (0.1 ml/kg) or LPS (10 mg/kg) for control and experimental purposes, respectively. All the animals are assigned to one of the following groups: saline only, LPS/saline, LPS/HBCM (75 mg/kg), LPS/baicalin (1.5 mg/kg), and LPS/DEXA (0.5 mg/kg) groups. LPS is injected at a dose of 10 mg/kg, after 10 min, HBCM, baicalin and DEXA are given, respectively.
A single injection of LPS (10 mg/kg, i.v.) leads to a biphasic arterial hypotension: an initial and transient decrease in arterial mean blood pressure (about 10 min), followed by a delayed and prolonged hypotension. The HBCM (75 mg/kg, i.v.), baicalin (1.5 mg/kg, i.v.) and DEXA (0.5 mg/kg, i.v.) are administrated 10 min after LPS administration. The used dose of baicalin is according to the content of baicalin in HBCM by the HPLC method. Separate groups are used for acute survival study (n=10 each), lung tissue sampling (n=10 each), and blood sampling (n=10 each). […]
The animals without pulmonary are monitored per 30 minutes for 7 hours after LPS administration. The blood pressure (BP) changes were recorded within 5 hours after LPS injection. […]

SMILES | elevation of plasma MCP-1 vs LPS/saline group (MCP-1) | LPS-induced iNOS expression in lung tissues (iNOS) | LPS-induced ICAM-1 expression in lung tissues (ICAM-1) | LPS-induced lung edema (wet/dry weight ratio) (Wistar rats [1]) | LPS-induced TGF-β expression in lung tissues (TGF-β) | elevation of plasma IL-1β vs LPS/saline group (IL-1β) | elevation of plasma TNF-α vs LPS/saline group (TNF-α) | LPS-induced prolonged arterial hypotension (Wistar rats [2]) | LPS-induced phosphorylated p38 MAP kinase expression in lung tissues [3] | survival for 7 hours (Wistar rats [4]; LPS 10 mg/kg, HBCM 75 mg/kg or baicalin 1.5 mg/kg i.v. 10 min after LPS, n=10) | survival rate compared with LPS/saline group (Wistar rats [4]; post-treatment 10 min after LPS 10 mg/kg, FIG. 6) | time all the rats survive (Wistar rats [4]; LPS 10 mg/kg, DEXA 0.5 mg/kg i.v. 10 min after LPS, n=10)
O=C(O)[C@H]1O[C@@H](Oc2cc3oc(-c4ccccc4)cc(=O)c3c(O)c2O)[C@H](O)[C@@H](O)[C@@H]1O [baicalin] | lower | significant inhibition | significant inhibition | significantly attenuates | significant inhibition | lower | significantly lower | significantly attenuates | significant inhibition | 90% | significantly better survival rate | –
C[C@@H]1C[C@H]2[C@@H]3CCC4=CC(=O)C=C[C@]4(C)[C@@]3(F)[C@@H](O)C[C@]2(C)[C@@]1(O)C(=O)CO [DEXA, dexamethasone] | – | – | – | – | – | – | – | – | – | – | – | more than 7 hours
